According to patent US7550430B2, “Cationic antimicrobial peptides and compositions” (E.I. du Pont de Nemours and Company, priority 2003, dated 2009):
Values after ≈ are worked out from the molar mass of the structure shown. Where two headings read alike, the source gives them in different places. Marks after values point to notes of the source that are not given here. Where a SMILES comes first, the peptide text is derived from it. Bridges are numbered along the chain shown (N, C = ends). Where no end group is shown, it is not given here. The star is where a group is joined. Acm = CC(=O)NC*

Assays:
Format in all cases: cell-based
[1] = system: E. coli ATCC 25922; settings: for MIC E. coli 25922 Expt. #1 / MIC E. coli 25922 Expt. #2: ATCC 25922; for MIC: ATCC 25922, 24 h
Procedure: (§1) The minimal inhibitory concentration (MIC) for the peptides was determined in sterile microtiter plates in a final volume of 200 μL using Trypticase Soy Broth (TSB; Difco Laboratories, Detroit, Mich.) as the growth medium. Serial two-fold dilutions of the peptide stock were made in the plate wells such that concentrations ranged from 512 to 2 μg/mL in a volume of 100 μL. Each well was then inoculated with 100 μL of a dilute suspension of bacteria in TSB yielding a final concentration of 1×10^4 bacteria/mL. The final peptide concentrations ranged from […]. The assay plates were incubated at 37° C. for 24 hours inside a Bioscreen C microtitre plate reader (Thermo Labsystems; Vantaa, Finland). Optical Density (OD) of the medium at 600 nm was recorded every 20 minutes to monitor cell growth. The lowest concentration of peptide preventing bacterial growth during the 24 hr period was defined as the MIC.

[2] = system: S. aureus 29213
Procedure: as §1

[3] = system: K. pneumoniae 700603
Procedure: as §1

[4] = system: P. aeruginosa 27853
Procedure: as §1

[5] = system: E. coli ATCC #25922; settings: ATCC #25922, 4 h
Procedure: Antimicrobial activity of the peptide immobilized on polymer substrates was evaluated in a Shake Flask Test. Test substance (polymer with immobilized peptide) or control substance (polymer alone) (50 mg suspended in […] phosphate buffer (pH 7)) was added to a sterile culture plate well; a dilute suspension of bacteria (1×10^5 cells/mL final concentration in the well) in 0.6 mM phosphate buffer was added to the well for a final volume of 5 mL. The plate was shaken on a platform shaker at room temperature. At specified times (4 hours and 24 hours), an aliquot was removed from the culture plate (0.1 mL, in triplicates), and serial dilutions ranging from 1 to 100 fold were made for enumeration of cells on trypticase soy agar (TSA) plates. The TSA plates were incubated for 20 hr at 37° C., and the number of colony forming units (CFU) per mL was determined.

| Compound | MIC E. coli 25922 Expt. #1 [1] | MIC E. coli 25922 Expt. #2 [1] [µg/mL] | MIC S. aureus 29213 [2]; 29213 [µg/mL] | MIC K. pneumoniae 700603 [3] [µg/mL] | MIC P. aeruginosa 27853 [4] [µg/mL] | MIC S. aureus 29213 ([2]; ATCC 29213) | MIC [1] [µg/mL] | log reduction in E. coli CFU/mL [5] [log] |
| --- | --- | --- | --- | --- | --- | --- | --- | --- |
| KGLKKLLKLGKKLLKL [SEQ ID NO:3, KGLKKLLKLGKKLLKL] | <=4* μg/mL | 2 | 64 to 128 | 8 | 8 |  |  |  |
| KGLKKLLKLLKKGLKL [SEQ ID NO:5, KGLKKLLKLLKKGLKL] | <=4* μg/mL | 2 |  | 8 to 16 | 8 | 32+ μg/mL |  |  |
| KGLKKGLKGLKKLLKL [SEQ ID NO:40, KGLKKGLKGLKKLLKL] |  |  |  |  |  |  | 256 |  |
| KGLKKGLKLLKKLLKL [SEQ ID NO:2, KGLKKGLKLLKKLLKL] | <=4* μg/mL | 2 | 64 to 128 | 4 to 8 | 8 |  |  |  |
| CC(C)C[C@@H]1NC(=O)CNC(=O)[C@H](CCCCN)NC(=O)[C@H](CC(C)C)NC(=O)[C@H](CC(C)C)NC(=O)[C@H](CCCCN)NC(=O)[C@H](CCCCN)NC(=O)[C@H](CC(C)C)NC(=O)[C@@H](N)CSSC[C@@H](C(=O)O)NC(=O)[C@H](CC(C)C)NC(=O)[C@H](CCCCN)NC(=O)[C@H](CC(C)C)NC(=O)[C@H](CC(C)C)NC(=O)[C@H](CCCCN)NC(=O)[C@H](CCCCN)NC1=O [SEQ ID NO:38] (H-CLKKLLKGLKKLLKLC-OH; disulfide 1-16; N-terminus and C-terminus assumed) |  |  |  |  |  |  | 32 (≈ 17.4 µM) |  |
| CC(=O)NCSC[C@H](NC(=O)[C@H](CC(C)C)NC(=O)[C@H](CCCCN)NC(=O)[C@H](CC(C)C)NC(=O)[C@H](CC(C)C)NC(=O)[C@H](CCCCN)NC(=O)[C@H](CCCCN)NC(=O)[C@H](CC(C)C)NC(=O)CNC(=O)[C@H](CCCCN)NC(=O)[C@H](CC(C)C)NC(=O)[C@H](CC(C)C)NC(=O)[C@H](CCCCN)NC(=O)[C@H](CCCCN)NC(=O)[C@H](CC(C)C)NC(=O)[C@@H](N)CSCNC(C)=O)C(=O)O [SEQ ID NO:25, CLKKLLKGLKKLLKLC] (H-C(Acm)LKKLLKGLKKLLKLC(Acm)-OH; N-terminus and C-terminus assumed) |  |  |  |  |  |  | 8 (≈ 4.03 µM) |  |
| CC(C)C[C@@H]1NC(=O)CNC(=O)[C@H](CCCCN)NC(=O)[C@H](CC(C)C)NC(=O)[C@H](CC(C)C)NC(=O)[C@H](CCCCN)NC(=O)[C@H](CCCCN)NC(=O)[C@H](CC(C)C)NC(=O)[C@@H](NC(=O)[C@@H](N)CCCCN)CSSC[C@@H](C(=O)O)NC(=O)[C@H](CC(C)C)NC(=O)[C@H](CCCCN)NC(=O)[C@H](CC(C)C)NC(=O)[C@H](CC(C)C)NC(=O)[C@H](CCCCN)NC(=O)[C@H](CCCCN)NC1=O [SEQ ID NO:31] (H-KCLKKLLKGLKKLLKLC-OH; disulfide 2-17; N-terminus and C-terminus assumed) |  |  |  |  |  |  | 16 (≈ 8.13 µM) |  |
| KGLKKLLKGLKKLLKL [SEQ ID NO:1, KGLKKLLKGLKKLLKL] |  | 2 to 4 | 8 | 8 to 16 | 2 |  | 4 | 4.6 |
| KGGKKLLKGLKKLLKL [SEQ ID NO:43, KGGKKLLKGLKKLLKL] | <=4* μg/mL | 2 | 256 | 64 | 16 |  |  |  |
| KGLKKLGKLLKKLLKL [SEQ ID NO:42, KGLKKLGKLLKKLLKL] | <=4* μg/mL | 2 | 64 | 4 to 8 | 8 to 16 |  |  |  |
| CC(=O)NCSC[C@H](NC(=O)[C@H](CC(C)C)NC(=O)[C@H](CCCCN)NC(=O)[C@H](CC(C)C)NC(=O)[C@H](CC(C)C)NC(=O)[C@H](CCCCN)NC(=O)[C@H](CCCCN)NC(=O)[C@H](CC(C)C)NC(=O)CNC(=O)[C@H](CCCCN)NC(=O)[C@H](CC(C)C)NC(=O)[C@H](CC(C)C)NC(=O)[C@H](CCCCN)NC(=O)[C@H](CCCCN)NC(=O)[C@H](CC(C)C)NC(=O)[C@H](CSCNC(C)=O)NC(=O)[C@@H](N)CCCCN)C(=O)O [compound 17, KC(Acm)LKKLLKGLKKLLKLC(Acm)] (H-KC(Acm)LKKLLKGLKKLLKLC(Acm)-OH; N-terminus and C-terminus assumed) |  |  |  |  |  |  | 4 (≈ 1.89 µM) |  |
